In the Kinase Knowledgebase extract (Sharma et al. 2016) one finds IC50 data, which are given here for 43 compounds.

One test concerns the target PIK3CG (human) (UniProt P48736). In words: Inhibition of PIK3CG Kinase Activity.
For a further test, the target named is PIK3CD (Human) (UniProt O00329). In words: Inhibition of PIK3CD Kinase Activity.
In the next test the target is PIK3CA (human) (UniProt P42336). The test is described as follows: Inhibition of PIK3CA Kinase Activity.
The target of a further test is PIK3CB (Human) (UniProt P42338). In words: Inhibition of PIK3CB Kinase Activity.
Sequence of PIK3CB (Human) (P42338 whole entry, looked up): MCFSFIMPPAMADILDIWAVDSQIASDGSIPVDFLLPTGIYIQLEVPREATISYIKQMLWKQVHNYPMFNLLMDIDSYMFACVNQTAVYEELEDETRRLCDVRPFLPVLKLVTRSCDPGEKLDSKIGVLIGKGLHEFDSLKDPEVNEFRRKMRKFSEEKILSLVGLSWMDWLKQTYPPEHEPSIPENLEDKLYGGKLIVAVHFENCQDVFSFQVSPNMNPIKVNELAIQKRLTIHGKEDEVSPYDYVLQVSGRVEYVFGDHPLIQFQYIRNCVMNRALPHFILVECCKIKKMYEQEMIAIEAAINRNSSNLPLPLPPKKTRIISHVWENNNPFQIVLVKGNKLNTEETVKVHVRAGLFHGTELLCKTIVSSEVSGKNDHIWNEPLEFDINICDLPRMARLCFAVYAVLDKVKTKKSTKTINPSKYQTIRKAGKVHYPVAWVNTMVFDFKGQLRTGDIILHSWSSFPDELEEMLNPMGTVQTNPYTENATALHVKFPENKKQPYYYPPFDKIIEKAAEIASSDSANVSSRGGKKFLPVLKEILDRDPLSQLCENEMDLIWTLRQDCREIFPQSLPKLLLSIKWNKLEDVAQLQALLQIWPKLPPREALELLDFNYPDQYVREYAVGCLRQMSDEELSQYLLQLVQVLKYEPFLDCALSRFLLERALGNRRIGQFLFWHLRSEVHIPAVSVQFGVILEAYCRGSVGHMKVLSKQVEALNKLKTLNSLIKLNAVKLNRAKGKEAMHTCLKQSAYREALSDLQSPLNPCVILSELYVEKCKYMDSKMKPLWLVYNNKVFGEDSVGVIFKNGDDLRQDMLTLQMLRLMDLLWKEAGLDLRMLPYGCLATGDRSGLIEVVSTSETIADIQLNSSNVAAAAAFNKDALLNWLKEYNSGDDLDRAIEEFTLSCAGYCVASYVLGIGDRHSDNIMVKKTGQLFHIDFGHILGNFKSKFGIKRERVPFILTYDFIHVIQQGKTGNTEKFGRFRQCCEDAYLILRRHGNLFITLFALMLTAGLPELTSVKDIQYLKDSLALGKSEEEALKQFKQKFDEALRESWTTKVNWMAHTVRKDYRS

Sequence of PIK3CA (human) (P42336 whole entry, looked up): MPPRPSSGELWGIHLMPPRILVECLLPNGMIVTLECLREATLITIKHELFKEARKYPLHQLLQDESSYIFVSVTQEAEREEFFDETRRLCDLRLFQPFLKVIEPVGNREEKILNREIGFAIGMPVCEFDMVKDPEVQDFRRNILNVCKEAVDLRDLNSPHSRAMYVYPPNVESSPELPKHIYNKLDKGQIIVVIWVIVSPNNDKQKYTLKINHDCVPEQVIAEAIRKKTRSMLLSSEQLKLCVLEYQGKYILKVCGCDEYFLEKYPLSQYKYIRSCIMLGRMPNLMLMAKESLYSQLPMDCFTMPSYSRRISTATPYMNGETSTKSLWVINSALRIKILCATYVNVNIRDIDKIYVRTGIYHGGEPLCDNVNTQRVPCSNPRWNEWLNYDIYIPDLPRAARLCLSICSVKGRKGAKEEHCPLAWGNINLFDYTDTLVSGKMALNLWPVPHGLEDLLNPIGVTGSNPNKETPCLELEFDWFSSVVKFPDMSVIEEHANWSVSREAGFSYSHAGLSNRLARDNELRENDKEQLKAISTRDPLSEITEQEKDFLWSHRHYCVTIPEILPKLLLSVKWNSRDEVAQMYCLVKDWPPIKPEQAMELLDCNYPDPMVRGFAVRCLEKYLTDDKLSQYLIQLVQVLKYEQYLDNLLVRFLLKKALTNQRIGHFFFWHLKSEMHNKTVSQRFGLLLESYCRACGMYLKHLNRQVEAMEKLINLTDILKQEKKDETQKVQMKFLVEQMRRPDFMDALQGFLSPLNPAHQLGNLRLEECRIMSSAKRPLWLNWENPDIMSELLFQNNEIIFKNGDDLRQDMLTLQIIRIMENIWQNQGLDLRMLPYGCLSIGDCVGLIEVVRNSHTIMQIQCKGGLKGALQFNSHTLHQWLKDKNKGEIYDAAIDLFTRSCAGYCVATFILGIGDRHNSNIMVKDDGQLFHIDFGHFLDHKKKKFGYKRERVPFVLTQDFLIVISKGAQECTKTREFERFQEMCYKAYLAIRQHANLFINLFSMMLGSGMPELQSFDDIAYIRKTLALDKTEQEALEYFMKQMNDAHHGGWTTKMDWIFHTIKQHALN
Sequence of PIK3CG (human) (P48736 whole entry, looked up): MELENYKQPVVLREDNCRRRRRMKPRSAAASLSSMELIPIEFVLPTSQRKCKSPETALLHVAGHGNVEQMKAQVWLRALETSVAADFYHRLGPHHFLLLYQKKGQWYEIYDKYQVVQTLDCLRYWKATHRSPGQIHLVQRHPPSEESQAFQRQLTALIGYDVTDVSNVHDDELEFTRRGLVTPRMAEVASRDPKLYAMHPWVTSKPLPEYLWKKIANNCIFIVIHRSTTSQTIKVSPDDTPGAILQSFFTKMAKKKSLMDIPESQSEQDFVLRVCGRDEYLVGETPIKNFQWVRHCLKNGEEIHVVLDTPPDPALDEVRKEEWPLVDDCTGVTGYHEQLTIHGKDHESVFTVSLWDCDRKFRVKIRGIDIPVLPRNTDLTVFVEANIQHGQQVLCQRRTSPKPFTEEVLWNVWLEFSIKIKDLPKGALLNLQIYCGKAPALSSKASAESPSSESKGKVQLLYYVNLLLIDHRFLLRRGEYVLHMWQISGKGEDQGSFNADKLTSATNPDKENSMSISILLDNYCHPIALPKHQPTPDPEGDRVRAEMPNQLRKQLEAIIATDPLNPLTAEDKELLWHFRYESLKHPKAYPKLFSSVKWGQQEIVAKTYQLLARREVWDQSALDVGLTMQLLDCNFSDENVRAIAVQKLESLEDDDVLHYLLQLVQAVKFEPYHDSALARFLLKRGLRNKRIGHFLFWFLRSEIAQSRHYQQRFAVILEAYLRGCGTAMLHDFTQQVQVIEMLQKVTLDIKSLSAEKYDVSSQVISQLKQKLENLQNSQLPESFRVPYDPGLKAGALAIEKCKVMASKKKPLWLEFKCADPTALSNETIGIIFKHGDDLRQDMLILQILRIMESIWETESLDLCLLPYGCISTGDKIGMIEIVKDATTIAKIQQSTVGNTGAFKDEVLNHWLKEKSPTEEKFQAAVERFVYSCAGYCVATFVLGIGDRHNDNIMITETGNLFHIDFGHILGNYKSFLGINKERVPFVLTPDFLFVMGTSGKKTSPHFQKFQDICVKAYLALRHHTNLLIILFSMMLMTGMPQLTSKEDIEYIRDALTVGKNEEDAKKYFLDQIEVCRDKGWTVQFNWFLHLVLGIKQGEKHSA
Sequence of PIK3CD (Human) (O00329 whole entry, looked up): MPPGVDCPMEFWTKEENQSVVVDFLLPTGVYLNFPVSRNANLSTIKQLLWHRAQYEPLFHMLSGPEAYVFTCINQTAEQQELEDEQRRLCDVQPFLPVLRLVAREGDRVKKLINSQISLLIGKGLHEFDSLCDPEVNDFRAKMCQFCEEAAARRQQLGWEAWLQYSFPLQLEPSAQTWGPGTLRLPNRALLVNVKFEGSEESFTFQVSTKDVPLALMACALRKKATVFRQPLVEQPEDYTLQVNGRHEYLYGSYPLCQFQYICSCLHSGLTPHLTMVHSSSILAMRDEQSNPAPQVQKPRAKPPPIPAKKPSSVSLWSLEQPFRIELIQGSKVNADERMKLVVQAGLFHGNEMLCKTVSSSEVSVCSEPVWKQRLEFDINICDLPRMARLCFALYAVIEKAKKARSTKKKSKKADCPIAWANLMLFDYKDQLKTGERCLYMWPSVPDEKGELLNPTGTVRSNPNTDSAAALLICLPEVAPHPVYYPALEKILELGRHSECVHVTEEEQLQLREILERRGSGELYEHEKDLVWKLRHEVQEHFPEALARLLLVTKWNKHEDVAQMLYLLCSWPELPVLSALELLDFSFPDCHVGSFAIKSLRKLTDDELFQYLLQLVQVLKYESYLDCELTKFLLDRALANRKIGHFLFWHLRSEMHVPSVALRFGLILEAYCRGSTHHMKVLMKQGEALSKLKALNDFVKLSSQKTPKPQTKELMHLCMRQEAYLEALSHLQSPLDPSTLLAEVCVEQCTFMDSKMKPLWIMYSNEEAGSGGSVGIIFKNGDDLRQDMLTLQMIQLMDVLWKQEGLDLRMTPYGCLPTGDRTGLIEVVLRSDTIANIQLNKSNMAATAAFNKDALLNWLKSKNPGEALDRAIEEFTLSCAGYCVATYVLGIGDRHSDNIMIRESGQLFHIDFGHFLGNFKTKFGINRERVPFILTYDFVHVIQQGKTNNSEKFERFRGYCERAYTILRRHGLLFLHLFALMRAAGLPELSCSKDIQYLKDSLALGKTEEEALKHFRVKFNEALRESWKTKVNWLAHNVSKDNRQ

For `C[C@H](Nc1ncnc2[nH]cnc12)c1cc2cccc(C#N)c2c(=O)n1-c1ccccc1`, the IC50 (usually the point on the concentration scale where inhibition reaches its midpoint) against PIK3CG (human) was under 100 nM; at PIK3CD (Human) it was under 100 nM; on PIK3CA (human) it was over 10000 nM.
Regarding `C[C@H](Nc1ncnc2[nH]cnc12)c1cc2cccc(-c3cc[nH]n3)c2c(=O)n1-c1ccccc1`, the IC50 against PIK3CG (human) was under 100 nM; against PIK3CB (Human), over 10000 nM; on PIK3CD (Human), under 100 nM; against PIK3CA (human), over 10000 nM.
`C[C@H](Nc1ncnc2[nH]cnc12)c1cc2cccc(N3CCOCC3)c2c(=O)n1-c1ccccc1`: the half-inhibitory concentration (IC50) on PIK3CG (human) is 100 to 1000 nM; against PIK3CB (Human), over 10000 nM; against PIK3CD (Human), 100 to 1000 nM; on PIK3CA (human) it was over 10000 nM.
As to `C[C@H](Nc1ncnc2[nH]cnc12)c1cc2cccc(-c3cn[nH]c3)c2c(=O)n1C1CC1`, the IC50 is under 100 nM against PIK3CG (human), 100 to 1000 nM at PIK3CB (Human), under 100 nM against PIK3CD (Human) and 100 to 1000 nM on PIK3CA (human).
With `C[C@H](Nc1ncnc2[nH]cc(F)c12)c1cc2cccc(-c3cnn(C)c3)c2c(=O)n1C1CC1`, the results for the IC50 at PIK3CG (human) and against PIK3CD (Human) were 100 to 1000 nM and under 100 nM, respectively.
As to `C[C@H](Nc1ncnn2ccnc12)c1cc2cccc(-c3cnn(C)c3)c2c(=O)n1-c1ccccc1`, the IC50 on PIK3CG (human) is 100 to 1000 nM; against PIK3CB (Human), over 10000 nM; at PIK3CD (Human) it was under 100 nM.
As to `C[C@H](Nc1ncnc2[nH]cc(C(N)=O)c12)c1cc2cccc(-c3cnn(C)c3)c2c(=O)n1-c1ccccc1`, the IC50 against PIK3CG (human) and against PIK3CD (Human) was under 100 nM in each case.
Consider `C[C@H](Nc1ncnc2[nH]cnc12)c1cc2cccc(-c3cnn(C)c3)c2c(=O)n1C1CC1`, for which the values for the IC50 against PIK3CG (human) and against PIK3CD (Human) were 100 to 1000 nM and under 100 nM, respectively.
For `C[C@H](Nc1ncnc2[nH]cnc12)c1cc2cccc(-c3cccnc3)c2c(=O)n1C1CC1`, the half-inhibitory concentration (IC50) is under 100 nM on PIK3CG (human), 100 to 1000 nM against PIK3CB (Human) and under 100 nM against PIK3CD (Human).
In the case of `C[C@H](Nc1ncnc2[nH]cnc12)c1cc2cccc(-c3cccc(F)c3)c2c(=O)n1-c1ccccc1`, the IC50 on PIK3CG (human) and at PIK3CD (Human) was under 100 nM each time.
As to `C[C@H](Nc1ncnn2cncc12)c1cc2cccc(-c3cnn(C)c3)c2c(=O)n1-c1ccccc1`, the IC50 against PIK3CG (human), at PIK3CB (Human) and against PIK3CA (human) was over 10000 nM each time.
Turning to `C[C@H](Nc1ncnc2[nH]cnc12)c1cc2cccc(-c3cnn(C)c3)c2c(=O)[nH]1`, the IC50 on PIK3CG (human), against PIK3CB (Human) and against PIK3CA (human) was over 10000 nM in each case.
Turning to `C=Cc1cccc2cc([C@H](C)Nc3ncnc4[nH]cnc34)n(-c3ccccc3)c(=O)c12`, the IC50 against PIK3CG (human) and on PIK3CD (Human) was under 100 nM in each case.
Take `C[C@H](Nc1ncnc2[nH]cnc12)c1cc2cccc(N3CCN(C)CC3)c2c(=O)n1-c1ccccc1`: the IC50 is over 10000 nM on PIK3CG (human), over 10000 nM against PIK3CB (Human), 100 to 1000 nM against PIK3CD (Human) and over 10000 nM against PIK3CA (human).
With `C[C@H](Nc1ncnc2[nH]cnc12)c1cc2cccc(-n3cccn3)c2c(=O)n1-c1ccccc1`, the figures for the IC50 at PIK3CB (Human), against PIK3CD (Human) and against PIK3CA (human) were over 10000 nM, 100 to 1000 nM and over 10000 nM, respectively.
As to `C[C@H](Nc1ncnc2[nH]cnc12)c1cc2cccc(-c3cn[nH]c3)c2c(=O)n1-c1ccccc1`, the IC50 against PIK3CG (human) is 100 to 1000 nM; on PIK3CB (Human), over 10000 nM; against PIK3CD (Human), under 100 nM.
As for `C[C@H](Nc1ncnc2[nH]cnc12)c1cc2cccc(-c3cnn(C)c3)c2c(=O)n1-c1ccccc1`, the IC50 was under 100 nM at PIK3CG (human), over 10000 nM on PIK3CB (Human), under 100 nM against PIK3CD (Human) and over 10000 nM against PIK3CA (human).
`C[C@H](Nc1nc(N)ncc1C(F)(F)F)c1cc2cccc(-c3cnn(C)c3)c2c(=O)n1C1CC1`: the IC50 against PIK3CG (human) was under 100 nM; against PIK3CB (Human) it was over 10000 nM; at PIK3CD (Human), under 100 nM; against PIK3CA (human), over 10000 nM.
As for `Cc1ccc(-c2cccc3cc([C@H](C)Nc4ncnc(N)n4)n(-c4ccccc4)c(=O)c23)cn1`, the IC50 was over 10000 nM against PIK3CB (Human), 100 to 1000 nM at PIK3CD (Human) and over 10000 nM at PIK3CA (human).
Consider `Cc1ccc(-c2cccc3cc([C@H](C)Nc4ncnc5[nH]cnc45)n(-c4ccccc4)c(=O)c23)cn1`, for which the IC50 against PIK3CG (human) is under 100 nM; on PIK3CB (Human), over 10000 nM; on PIK3CD (Human) it was under 100 nM.
Take `C[C@H](Nc1ncnc2[nH]cnc12)c1cc2cccc(N3CCCC3)c2c(=O)n1-c1ccccc1`: the IC50 at PIK3CB (Human) and against PIK3CA (human) was over 10000 nM in each case.
As for `C[C@H](Nc1ncnc2[nH]cnc12)c1cc2cccc(-c3cccnc3)c2c(=O)n1-c1ccccc1`, the IC50 against PIK3CG (human) and at PIK3CD (Human) was under 100 nM in each case.
`C[C@H](Nc1nc(N)nc2[nH]cnc12)c1cc2cccc(-c3cnn(C)c3)c2c(=O)n1-c1ccccc1`: the values for the IC50 on PIK3CG (human), against PIK3CD (Human) and at PIK3CA (human) were under 100 nM, under 100 nM and 100 to 1000 nM, respectively.
Consider `C[C@H](Nc1ncnc2[nH]cnc12)c1cc2cccc(-c3cccnc3)c2c(=O)[nH]1`, for which the IC50 at PIK3CG (human) is 100 to 1000 nM; on PIK3CB (Human), over 10000 nM; on PIK3CD (Human), under 100 nM; on PIK3CA (human) it was over 10000 nM.
In the case of `C[C@H](Nc1nc(N)ncc1C#N)c1cc2cccc(-c3cnn(C)c3)c2c(=O)n1C1CC1`, the half-maximal inhibitory concentration (IC50) against PIK3CG (human), against PIK3CB (Human) and against PIK3CD (Human) was under 100 nM in each case.
On to `C[C@H](Nc1ncnc2[nH]cnc12)c1cc2cccc(N(C)C)c2c(=O)n1-c1ccccc1`, for which the IC50 on PIK3CB (Human) and at PIK3CA (human) was over 10000 nM throughout.
As to `C[C@H](Nc1nc(N)ncc1C(F)(F)F)c1cc2cccc(-c3cnn(C)c3)c2c(=O)n1-c1ccccc1`, the IC50 against PIK3CG (human) is under 100 nM; on PIK3CB (Human), over 10000 nM; at PIK3CD (Human), under 100 nM; at PIK3CA (human), over 10000 nM.
Take `C[C@H](Nc1ncnc(N)n1)c1cc2cccc(-c3cnn(C)c3)c2c(=O)n1-c1ccccc1`: the figures for the IC50 at PIK3CB (Human), against PIK3CD (Human) and against PIK3CA (human) were over 10000 nM, under 100 nM and over 10000 nM, respectively.
On to `C[C@H](Nc1nc(N)ncc1C#N)c1cc2cccc(-c3cnn(C)c3)c2c(=O)n1-c1ccccc1`, for which the IC50 is under 100 nM against PIK3CG (human), over 10000 nM at PIK3CB (Human), under 100 nM at PIK3CD (Human) and over 10000 nM at PIK3CA (human).
As to `C[C@H](Nc1ncnc2[nH]cnc12)c1cc2cccc(NC3CCOCC3)c2c(=O)n1-c1ccccc1`, the IC50 against PIK3CB (Human) is over 10000 nM; on PIK3CD (Human), 100 to 1000 nM; on PIK3CA (human) it was over 10000 nM.
Turning to `C[C@H](Nc1ncnc2[nH]cc(C#N)c12)c1cc2cccc(-c3cnn(C)c3)c2c(=O)n1-c1ccccc1`, the figures for the half-inhibitory concentration (IC50) against PIK3CG (human), against PIK3CD (Human) and at PIK3CA (human) were under 100 nM, under 100 nM and 100 to 1000 nM, respectively.
As for `Cc1cn(-c2cccc3cc([C@H](C)Nc4ncnc5[nH]cnc45)n(-c4ccccc4)c(=O)c23)cn1`, the IC50 against PIK3CB (Human) was over 10000 nM; against PIK3CD (Human), under 100 nM; against PIK3CA (human) it was over 10000 nM.
Take `C[C@H](Nc1nc(N)ncc1Cl)c1cc2cccc(-c3cnn(C)c3)c2c(=O)n1-c1ccccc1`: the half-inhibitory concentration (IC50) at PIK3CG (human) is 100 to 1000 nM; against PIK3CB (Human) it was over 10000 nM; against PIK3CD (Human), under 100 nM; against PIK3CA (human) it was over 10000 nM.
`C[C@H](Nc1ncnc(N)c1C#N)c1cc2cccc(-c3cnn(C)c3)c2c(=O)n1-c1ccccc1`: the IC50 is under 100 nM at PIK3CG (human), over 10000 nM on PIK3CB (Human) and under 100 nM at PIK3CD (Human).
With `Cc1cc(-c2cccc3cc([C@H](C)Nc4ncnc5[nH]cnc45)n(-c4ccccc4)c(=O)c23)ccn1`, the IC50 against PIK3CG (human) was under 100 nM; against PIK3CD (Human), under 100 nM; against PIK3CA (human) it was 100 to 1000 nM.
In the case of `C[C@H](Nc1nc(N)ncc1I)c1cc2cccc(-c3cnn(C)c3)c2c(=O)n1-c1ccccc1`, the IC50 is under 100 nM against PIK3CG (human), over 10000 nM against PIK3CB (Human), under 100 nM against PIK3CD (Human) and over 10000 nM at PIK3CA (human).
Take `CCc1cccc2cc([C@H](C)Nc3ncnc4[nH]cnc34)n(-c3ccccc3)c(=O)c12`: the IC50 against PIK3CG (human) and on PIK3CD (Human) was under 100 nM throughout.
In the case of `C[C@H](Nc1ncnc2[nH]cnc12)c1cc2cccc(-c3cnn(C)c3)c2c(=O)n1-c1cccc(F)c1`, the IC50 at PIK3CG (human) is under 100 nM; against PIK3CB (Human), over 10000 nM; at PIK3CD (Human) it was under 100 nM.
With `Cc1cnn(-c2cccc3cc([C@H](C)Nc4ncnc5[nH]cnc45)n(-c4ccccc4)c(=O)c23)c1`, the IC50 was over 10000 nM against PIK3CB (Human), 100 to 1000 nM on PIK3CD (Human) and over 10000 nM at PIK3CA (human).
`COc1ncc(-c2cccc3cc([C@H](C)Nc4ncnc5[nH]cnc45)n(-c4ccccc4)c(=O)c23)cn1`: the IC50 at PIK3CB (Human) is over 10000 nM; against PIK3CD (Human) it was under 100 nM.
Take `C[C@H](Nc1nc(N)nc2[nH]cnc12)c1cc2cccc(-c3cccnc3)c2c(=O)n1-c1ccccc1`: the IC50 against PIK3CG (human) is under 100 nM; on PIK3CD (Human), under 100 nM; on PIK3CA (human), 100 to 1000 nM.
Turning to `C[C@H](Nc1ncnc2[nH]cnc12)c1cc2cccc(-c3ccncc3)c2c(=O)n1-c1ccccc1`, the IC50 on PIK3CG (human) and against PIK3CD (Human) was under 100 nM each time.
Take `Cc1ccc(-c2cccc3cc([C@H](C)Nc4nc(N)nc5[nH]cnc45)n(-c4ccccc4)c(=O)c23)cn1`: the values for the IC50 at PIK3CG (human), against PIK3CD (Human) and against PIK3CA (human) were under 100 nM, under 100 nM and 100 to 1000 nM, respectively.
